According to patent US4073908A, “8-Amino-theophylline derivatives and therapeutic applications thereof” (Laboratoire le Brun S.A., priority 1975, dated 1978):

Tests used:
Format in all cases: in vivo
[1] = Acute toxicity in rats; settings: rat, in vivo, po, single administration
Excerpt: (§1) Acute toxicity in mice by the sub-cutaneous and oral routes and in rats by the oral route was investigated by determination of the death rate following a single administration of increasing dosages.
(§2) Symbol > means that the LD50 is not attained at the dosage indicated.

[2] = Acute toxicity in mice; settings: mouse, in vivo, single administration
Excerpt: as §1, §2

[3] = tested on: bronchospasm induced by histamine injection in guinea-pigs; experiment: Anti-histaminic: bronchospasm induced by histamine injection in guinea-pigs; settings: Cavia porcellus, oral, read-out: oral AD50, anti-histaminic activity
Protocol: This activity was determined according to the technique of the bronchospasm induced by histamine injection in guinea-pigs.

[4] = tested on: carrage enin-induced edema in rats; experiment: Anti-inflammatory: carrageenin-induced edema in rats; settings: oral route
Protocol: The technique used was that of the carrage enin-induced edema in rats (oral route). The dosage which inhibits this edema by a factor of 50% was evaluated by interpolation.

[5] = tested on: cough induced by electric stimulation of the laryngeal nerve in cats; experiment: Anti-tussive: cough induced by electric stimulation of the laryngeal nerve
Excerpt: 6. Anti-tussive activity against cough induced by electric stimulation of the laryngeal nerve in cats.

[6] = po, read-out: LD50, oral route, mice
[7] = sc, read-out: LD50, s.c. route, mice

Cn1c(=O)c2c(nc3n2CCN3CCN2CCN(c3ccc(Cl)cc3)CC2)n(C)c1=O [Compound 12]
LD50 [1]: > 100 mg/kg | LD50 [2, 6]: 120 mg/kg | LD50 [2, 7]: > 300 mg/kg | ED50 [3]: 1.5 mg/kg | anti-inflammatory activity (in words) [4]: the more active, the activities being substantially equivalent to those of phenyl butazone | anti-tussive activity (in words) [5]: most active compound investigated

CC1CN(CCN2CCn3c2nc2c3c(=O)n(C)c(=O)n2C)CCN1c1ccc(Cl)cc1 (stereo not drawn) [Compound 22]
LD50 [1]: > 100 mg/kg | LD50 [2, 6]: > 300 mg/kg | LD50 [2, 7]: > 300 mg/kg

Cn1c(=O)c2c(nc3n2CCCCN3CCN2CCN(c3cccc(Cl)c3)CC2)n(C)c1=O [Compound 26]
LD50 [1]: > 100 mg/kg | LD50 [2, 6]: > 300 mg/kg | LD50 [2, 7]: > 300 mg/kg

Cn1c(=O)c2c(nc3n2CCN3CCN2CCN(c3ccccc3Cl)CC2)n(C)c1=O [Compound 10]
LD50 [1]: > 100 mg/kg | LD50 [2, 6]: > 300 mg/kg | LD50 [2, 7]: > 300 mg/kg

Cn1c(=O)c2c(nc3n2CCN3CCN2CCN(c3ccc(F)cc3)CC2)n(C)c1=O [Compound 7]
LD50 [1]: > 100 mg/kg | LD50 [2, 6]: > 300 mg/kg | LD50 [2, 7]: > 300 mg/kg

Cn1c(=O)c2c(nc3n2CCN3CCN2CCN(c3cccc(F)c3)CC2)n(C)c1=O [Compound 6]
LD50 [1]: > 100 mg/kg | LD50 [2, 6]: > 300 mg/kg | LD50 [2, 7]: > 300 mg/kg

Cn1c(=O)c2c(nc3n2CCN3CCCCCCN2CCN(c3cccc(Cl)c3)CC2)n(C)c1=O [Compound 29]
LD50 [1]: > 100 mg/kg | LD50 [2, 6]: > 300 mg/kg | LD50 [2, 7]: > 300 mg/kg

Cc1cccc(N2CCN(CCN3CCn4c3nc3c4c(=O)n(C)c(=O)n3C)CC2)c1 [Compound 1]
LD50 [1]: > 100 mg/kg | LD50 [2, 6]: > 300 mg/kg | LD50 [2, 7]: > 300 mg/kg

Cn1c(=O)c2c(nc3n2CCN3CCN2CCN(c3ccc(Cl)c(Cl)c3)CC2)n(C)c1=O [Compound 14]
LD50 [1]: > 100 mg/kg | LD50 [2, 6]: > 300 mg/kg | LD50 [2, 7]: > 300 mg/kg

Cn1c(=O)c2c(nc3n2CCCN3CCCN2CCN(c3ccc(Cl)cc3)CC2)n(C)c1=O [Compound 28]
LD50 [1]: > 100 mg/kg | LD50 [2, 6]: > 300 mg/kg | LD50 [2, 7]: > 300 mg/kg

Cn1c(=O)c2c(nc3n2CCN3CCN2CCN(c3cccc(Cl)c3Cl)CC2)n(C)c1=O [Compound 13]
LD50 [1]: > 100 mg/kg | LD50 [2, 6]: > 300 mg/kg | LD50 [2, 7]: > 300 mg/kg

Cc1ccc(N2CCN(CCN3CCn4c3nc3c4c(=O)n(C)c(=O)n3C)CC2)cc1C [Compound 2]
LD50 [1]: > 100 mg/kg | LD50 [2, 6]: > 300 mg/kg | LD50 [2, 7]: > 300 mg/kg

Cn1c(=O)c2c(nc3n2CCN3CCN2CCN(c3cccc(C(F)(F)F)c3)CC2)n(C)c1=O [Compound 5]
LD50 [1]: > 100 mg/kg | LD50 [2, 6]: > 300 mg/kg | LD50 [2, 7]: > 300 mg/kg

Cn1c(=O)c2c(nc3n2CCN3CCN2CCN(c3cccc(Br)c3)CC2)n(C)c1=O [Compound 8]
LD50 [1]: > 100 mg/kg | LD50 [2, 6]: > 300 mg/kg | LD50 [2, 7]: > 300 mg/kg

Cn1c(=O)c2c(nc3n2CCN3CCN2CCN(c3cccc(Cl)c3)C(COc3ccccc3)C2)n(C)c1=O (stereo not drawn) [Compound 25]
LD50 [1]: > 100 mg/kg | LD50 [2, 6]: > 300 mg/kg | LD50 [2, 7]: > 300 mg/kg
